Key:
Assay in all cases: fitness (endpoint OD595 vs no drug) (fraction); higher = more growth
[1] = system: S. pneumoniae D39V
Outline: (§1)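 Each well of a 384-well plate received 30 µl of culture at OD595 0.01, or 55 µl for S. pneumoniae. TSB, LB Lennox or CY served as media at 37 °C. OD595 was taken every 30 min for 14 h and corrected by subtracting the first reading. Fitness is the optical density at stationary-phase entry divided by the robust mean of no-drug controls, capped at 1.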

[2] = system: S. aureus DSM 20231
Outline: as §1

[3] = system: B. subtilis 168
Outline: as §1

[4] = system: S. aureus Newman
Outline: as §1

[5] = first compound 0.125 µg/mL, partner 0.039 µg/mL
[6] = first compound 0.125 µg/mL, partner 0.078 µg/mL

Work on CCC[C@@H]1C[C@@H](C(=O)N[C@@H]([C@H]2O[C@H](SC)[C@H](O)[C@@H](O)[C@H]2O)[C@@H](C)O)N(C)C1 [Lincomycin] + CO[C@@]12[C@H](COC(N)=O)C3=C(C(=O)C(C)=C(N)C3=O)N1C[C@@H]1N[C@@H]12 [Mitomycin C] yielded a fitness ([1]; first compound 0.2 µg/mL, partner 0.001075 µg/mL) of 0.679, a fitness ([1]; first compound 0.2 µg/mL, partner 0.00215 µg/mL) of 0.69 and a fitness ([1]; first compound 0.2 µg/mL, partner 0.0043 µg/mL) of 0.603. For the same compound, the fitness ([1]; first compound 0.215 µg/mL, partner 0.002 µg/mL) was 0.709, the fitness ([1]; first compound 0.215 µg/mL, partner 0.004 µg/mL) was 0.73 and the fitness ([1]; first compound 0.215 µg/mL, partner 0.008 µg/mL) was 0.657. It also gave a fitness ([1]; first compound 0.4 µg/mL, partner 0.001075 µg/mL) of 0.605, a fitness ([1]; first compound 0.4 µg/mL, partner 0.00215 µg/mL) of 0.609 and a fitness ([1]; first compound 0.4 µg/mL, partner 0.0043 µg/mL) of 0.497. The fitness ([1]; first compound 0.43 µg/mL, partner 0.002 µg/mL) was 0.615, the fitness ([1]; first compound 0.43 µg/mL, partner 0.004 µg/mL) was 0.614 and the fitness ([1]; first compound 0.43 µg/mL, partner 0.008 µg/mL) was 0.514. It also gave a fitness ([1]; first compound 0.8 µg/mL, partner 0.001075 µg/mL) of 0.221, a fitness ([1]; first compound 0.8 µg/mL, partner 0.00215 µg/mL) of 0.218 and a fitness ([1]; first compound 0.8 µg/mL, partner 0.0043 µg/mL) of 0.131. The fitness ([1]; first compound 0.86 µg/mL, partner 0.002 µg/mL) was 0.246, the fitness ([1]; first compound 0.86 µg/mL, partner 0.004 µg/mL) was 0.258 and the fitness ([1]; first compound 0.86 µg/mL, partner 0.008 µg/mL) was 0.266. For the same compound, the fitness ([2]; first compound 0.1 µg/mL, partner 0.0156 µg/mL) was 0.645, the fitness ([2]; first compound 0.1 µg/mL, partner 0.0312 µg/mL) was 0.651 and the fitness ([2]; first compound 0.1 µg/mL, partner 0.0625 µg/mL) was 0.502. It also gave a fitness ([2]; first compound 0.2 µg/mL, partner 0.0156 µg/mL) of 0.613, a fitness ([2]; first compound 0.2 µg/mL, partner 0.0312 µg/mL) of 0.567 and a fitness ([2]; first compound 0.2 µg/mL, partner 0.0625 µg/mL) of 0.383. The fitness ([2]; first compound 0.4 µg/mL, partner 0.0156 µg/mL) was 0.217, the fitness ([2]; first compound 0.4 µg/mL, partner 0.0312 µg/mL) was 0.199 and the fitness ([2]; first compound 0.4 µg/mL, partner 0.0625 µg/mL) was 0.108.
N[C@@H]1CONC1=O [Cycloserine D] + CN(C)c1cc(NC(=O)CNC(C)(C)C)c(O)c2c1C[C@H]1C[C@H]3[C@H](N(C)C)C(O)=C(C(N)=O)C(=O)[C@@]3(O)C(O)=C1C2=O [Tigecycline] gave a fitness [3, 5] of 0.944, a fitness [3, 6] of 0.955 and a fitness ([3]; first compound 0.125 µg/mL, partner 0.125 µg/mL, one replicate) of no less than 1. The fitness ([3]; first compound 0.125 µg/mL, partner 0.156 µg/mL) was 0.914, the fitness ([3]; first compound 0.125 µg/mL, partner 0.25 µg/mL, one replicate) was no less than 1 and the fitness ([3]; first compound 0.125 µg/mL, partner 0.5 µg/mL, one replicate) was 0.944. For the same compound, the fitness ([3]; first compound 0.25 µg/mL, partner 0.039 µg/mL) was 0.987, the fitness ([3]; first compound 0.25 µg/mL, partner 0.078 µg/mL) was 0.867 and the fitness ([3]; first compound 0.25 µg/mL, partner 0.125 µg/mL, one replicate) was no less than 1. It also gave a fitness ([3]; first compound 0.25 µg/mL, partner 0.156 µg/mL) of 0.911, a fitness ([3]; first compound 0.25 µg/mL, partner 0.25 µg/mL, one replicate) of 0.97 and a fitness ([3]; first compound 0.25 µg/mL, partner 0.5 µg/mL, one replicate) of 0.94. For the same compound, the fitness ([3]; first compound 0.5 µg/mL, partner 0.039 µg/mL) was no less than 1, the fitness ([3]; first compound 0.5 µg/mL, partner 0.078 µg/mL) was 0.912 and the fitness ([3]; first compound 0.5 µg/mL, partner 0.125 µg/mL, one replicate) was 0.994. The fitness ([3]; first compound 0.5 µg/mL, partner 0.156 µg/mL) was 0.982, the fitness ([3]; first compound 0.5 µg/mL, partner 0.25 µg/mL, one replicate) was 0.922 and the fitness ([3]; first compound 0.5 µg/mL, partner 0.5 µg/mL, one replicate) was no less than 1. For the same compound, the fitness ([4]; first compound 0.375 µg/mL, partner 0.039 µg/mL) was 0.956, the fitness ([4]; first compound 0.375 µg/mL, partner 0.078 µg/mL) was 0.981 and the fitness ([4]; first compound 0.375 µg/mL, partner 0.156 µg/mL) was 0.986. For the same compound, the fitness ([4]; first compound 0.75 µg/mL, partner 0.039 µg/mL) was 0.936, the fitness ([4]; first compound 0.75 µg/mL, partner 0.078 µg/mL) was no less than 1 and the fitness ([4]; first compound 0.75 µg/mL, partner 0.156 µg/mL) was 0.983. For the same compound, the fitness ([4]; first compound 1.5 µg/mL, partner 0.039 µg/mL) was 0.931, the fitness ([4]; first compound 1.5 µg/mL, partner 0.078 µg/mL) was 0.994 and the fitness ([4]; first compound 1.5 µg/mL, partner 0.156 µg/mL) was 0.971.
CCC[C@@H]1C[C@@H](C(=O)N[C@@H]([C@H]2O[C@H](SC)[C@H](O)[C@@H](O)[C@H]2O)[C@H](C)Cl)N(C)C1 [Clindamycin] + CC1(C)S[C@@H]2[C@H](NC(=O)Cc3ccccc3)C(=O)N2[C@H]1C(=O)O [Penicillin G] gave a fitness ([4]; first compound 0.0312 µg/mL, partner 0.0195 µg/mL) of 0.639, a fitness ([4]; first compound 0.0312 µg/mL, partner 0.039 µg/mL) of 0.708 and a fitness ([4]; first compound 0.0625 µg/mL, partner 0.0195 µg/mL) of 0.416. The fitness ([4]; first compound 0.125 µg/mL, partner 0.0195 µg/mL) was 0.0886, the fitness [4, 5] was 0.0624 and the fitness [4, 6] was 0.0543.

Reference: the supplement of paper PMC10627819
